Experimental data from patent US20250025417A1, “ORAL ABIRATERONE FORMULATIONS” (PROPELLA THERAPEUTICS, INC., priority 2021, published 2025).

Tests used:
[1] = Forms A, B, and C
[2] = Solubility of abiraterone decanoate in lipid-based vehicles at 25° C. (HPLC); assay type: physicochemical; details: for Solubility (mg/g) at 25° C.: Day 13 results; for Solb (mg/g) at 25° C.: average of day 2 and day 7
Method: In this example, solubility of abiraterone decanoate in the following four vehicles were tested. Each vehicle has a distinctive base, namely, medium chain trigylceride (MCT)/polyoxylglyceride, long chain (LC) monodiglyceride, and two propylene glycol (PG) monoesters, caprylic and lauryl. • Vehicle 1: MCT/Polyoxylglyceride based: 20% Kolliphor RH40/14% Plurol Oleique CC 497/33% Labrafil 1944 CS/33% Labrafac Lipophile WL 1349 • Vehicle 2: PG Monoester based: 20% Kolliphor RH 40/14% Plurol Oleique CC 497/66% Lauroglycol 90 • Vehicle 3: PG Monoester based: 20% Kolliphor RH40/14% Plurol Oleique CC 497/66% Capmul PG-8 • Vehicle 4: LC Monodiglyceride based: 20% Kolliphor RH40/14% Plurol Oleique CC 497/66% Maisine CC
Solubilities of abiraterone decanoate in different vehicles were tested following the procedure below: • Prepare 5 g of each vehicle by weight • In a 4-mL vial, weigh about 350 mg drug and then add 2 mL of vehicle • Sonicate and vortex all samples, then place on a rotator at 25° C. • At the end of the day check the samples to see if the drug completely dissolved. If so, use wax paper to transfer additional drug, record the additional amount added. • After 2-3 days, remove about 0.5 mL from each sample and filter using a microcentrifuge. […] Results were obtained for samples after 2 days and after 7 days.
The vehicles being tested have the following compositions: • Vehicle 1 (see Example 2): 20% Kolliphor RH40/14% Plurol Oleique CC 497/33% Labrafil 1944 CS/33% Labrafac Lipophile WL 1349, used as a control. • Vehicle 5: 20% Kolliphor RH40/14% Plurol Oleique CC 497/33% Maisine CC/33% Labrafac Lipophile WL 1349* • Vehicle 6: 20% Kolliphor RH40/14% Plurol Oleique CC 497/16% Labrafil 1944 CS/30% Maisine CC/20% Labrafac Lipophile WL 1349 • Vehicle 7: 20% Kolliphor RH40/14% Plurol Oleique CC 497/16% Labrafil 1944 CS/30% Capmul PG-8/20% Labrafac Lipophile WL 1349 • Vehicle 8: 20% Kolliphor RH40/14% Plurol Oleique CC 497/16% Labrafil 1944 CS/30% Capmul PG-12/20% Labrafac Lipophile WL 1349 • Vehicle 9: 20% Kolliphor RH40/14% Plurol Oleique CC 497/16% Labrafil 1944 CS/30% Labrafil M 2130 CS/20% Labrafac Lipophile WL 1349
The procedures for preparing samples and solubility testing are similar to those described in Example 2.

**Q.** For `CCCCCCCCCC(=O)O[C@H]1CC[C@@]2(C)C(=CC[C@@H]3[C@@H]2CC[C@]2(C)C(c4cccnc4)=CC[C@@H]32)C1` [abiraterone decanoate], which “DVS Max H2O uptake (wt %)” value [1] is on record?
**A.** N/A - non-hygroscopic

**Q.** What about the “solubility in lipid based vehicles (in words)” value ([2]; Examples 2 and 3) of the same compound?
**A.** good solubilities

**Q.** And the “Solubility (mg/g) at 25° C.” value ([2]; Vehicle 1 (control))?
**A.** 101.1 mg/g

**Q.** What about the “Solb (mg/g) at 25° C.” value ([2]; Vehicle 1: 20% Kolliphor RH40/14% Plurol Oleique CC 497/33% Labrafil 1944 CS/33% Labrafac Lipophile WL 1349) of the same compound?
**A.** 88.5 mg/g

**Q.** And the “Solb (mg/g) at 25° C.” value ([2]; Vehicle 2: 20% Kolliphor RH 40/14% Plurol Oleique CC 497/66% Lauroglycol 90)?
**A.** 143.9 mg/g

**Q.** And the “Solb (mg/g) at 25° C.” value ([2]; Vehicle 3: 20% Kolliphor RH40/14% Plurol Oleique CC 497/66% Capmul PG-8)?
**A.** 149.2 mg/g

**Q.** And the “Solb (mg/g) at 25° C.” value ([2]; Vehicle 4: 20% Kolliphor RH40/14% Plurol Oleique CC 497/66% Maisine CC)?
**A.** 110.2 mg/g

**Q.** And the “Solubility (mg/g) at 25° C.” value ([2]; Vehicle 5: 20% Kolliphor RH40/14% Plurol Oleique CC 497/33% Maisine CC/33% Labrafac Lipophile WL 1349)?
**A.** 111.5 mg/g

**Q.** And the “Solubility (mg/g) at 25° C.” value ([2]; Vehicle 6: 20% Kolliphor RH40/14% Plurol Oleique CC 497/16% Labrafil 1944 CS/30% Maisine CC/20% Labrafac Lipophile WL 1349)?
**A.** 114.3 mg/g

**Q.** What about the “Solubility (mg/g) at 25° C.” value ([2]; Vehicle 7: 20% Kolliphor RH40/14% Plurol Oleique CC 497/16% Labrafil 1944 CS/30% Capmul PG-8/20% Labrafac Lipophile WL 1349) of the same compound?
**A.** 141.2 mg/g

**Q.** And the “Solubility (mg/g) at 25° C.” value ([2]; Vehicle 8: 20% Kolliphor RH40/14% Plurol Oleique CC 497/16% Labrafil 1944 CS/30% Capmul PG-12/20% Labrafac Lipophile WL 1349)?
**A.** 132.9 mg/g
